Test results as given in ChEMBL document CHEMBL3421625, “Discovery and optimization of novel antagonists to the human neurokinin-3 receptor for the treatment of sex-hormone disorders (Part I)” (J Med Chem, 2015).

Assays:
[1] = Lipophilicity, log D of the compound at pH 7.4; type: physicochemical; conditions: buffer, read-out: logD
[2] = target: Kappa-type opioid receptor (Homo sapiens) (UniProt P41145); experiment: Inhibition of KOR (unknown origin) at 10 uM relative to control
[3] = target: Kappa-type opioid receptor (Homo sapiens) (UniProt P41145); experiment: Inhibition of KOR (unknown origin) at 1 uM relative to control
[4] = target: Mu-type opioid receptor (Homo sapiens) (UniProt P35372); experiment: Inhibition of recombinant human mu opioid receptor expressed in HEK293 cells at 1 uM by radioligand displacement assay relative to control; type: cell-based
[5] = target: Muscarinic acetylcholine receptor M3 (Homo sapiens) (UniProt P20309); experiment: Displacement of [3H]4-DAMP from recombinant human muscarinic M3 receptor expressed in CHO cells at 1 uM after 60 mins by scintillation counting analysis relative to control; type: cell-based
[6] = target: Muscarinic acetylcholine receptor M4 (Homo sapiens) (UniProt P08173); experiment: Displacement of [3H]4-DAMP from recombinant human muscarinic M4 receptor expressed in CHO cells at 1 uM after 60 mins by scintillation counting analysis relative to control; type: cell-based
[7] = target: Muscarinic acetylcholine receptor M5 (Homo sapiens) (UniProt P08912); experiment: Displacement of [3H]4-DAMP from recombinant human muscarinic M5 receptor expressed in CHO cells at 1 uM after 60 mins by scintillation counting analysis relative to control; type: cell-based
[8] = target: D(3) dopamine receptor (Homo sapiens) (UniProt P35462); experiment: Displacement of [3H]methyl-spiperone from recombinant human dopamine D3 receptor expressed in CHO cells at 1 uM by scintillation counting analysis relative to control; type: cell-based
D(3) dopamine receptor (Homo sapiens), sequence (P35462 whole entry): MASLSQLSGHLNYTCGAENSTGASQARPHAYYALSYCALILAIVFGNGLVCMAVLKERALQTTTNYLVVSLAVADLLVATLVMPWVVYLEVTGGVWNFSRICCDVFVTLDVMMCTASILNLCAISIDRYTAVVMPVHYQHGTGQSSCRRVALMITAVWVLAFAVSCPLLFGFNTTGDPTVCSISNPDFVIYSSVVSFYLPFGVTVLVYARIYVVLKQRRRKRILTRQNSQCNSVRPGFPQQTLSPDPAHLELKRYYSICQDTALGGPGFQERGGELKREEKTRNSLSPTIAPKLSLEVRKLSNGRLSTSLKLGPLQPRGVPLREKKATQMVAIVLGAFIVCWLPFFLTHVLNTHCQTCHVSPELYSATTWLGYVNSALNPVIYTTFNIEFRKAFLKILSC

[9] = target: Delta-type opioid receptor (Rattus norvegicus) (UniProt P33533); experiment: Displacement of [3H]naloxone from delta opioid receptor in rat cerebral cortex at 1 uM after 40 mins by scintillation counting analysis relative to control; type: tissue-based
Delta-type opioid receptor (Rattus norvegicus), sequence (P33533 whole entry): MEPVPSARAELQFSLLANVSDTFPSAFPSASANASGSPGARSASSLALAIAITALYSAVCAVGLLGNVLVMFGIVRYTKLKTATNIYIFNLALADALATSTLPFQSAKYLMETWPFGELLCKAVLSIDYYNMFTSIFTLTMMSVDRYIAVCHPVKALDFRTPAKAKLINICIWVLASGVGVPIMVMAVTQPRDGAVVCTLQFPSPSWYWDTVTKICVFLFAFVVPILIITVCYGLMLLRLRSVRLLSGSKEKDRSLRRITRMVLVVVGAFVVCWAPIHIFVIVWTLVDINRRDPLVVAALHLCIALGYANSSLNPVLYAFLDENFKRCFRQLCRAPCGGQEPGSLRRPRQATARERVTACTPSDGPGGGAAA

[10] = target: 5-hydroxytryptamine receptor 1A (Homo sapiens) (UniProt P08908); experiment: Inhibition of recombinant human 5HT1A receptor expressed in HEK293 cells at 1 uM by radioligand displacement assay relative to control; type: cell-based
5-hydroxytryptamine receptor 1A (Homo sapiens), sequence (P08908 whole entry): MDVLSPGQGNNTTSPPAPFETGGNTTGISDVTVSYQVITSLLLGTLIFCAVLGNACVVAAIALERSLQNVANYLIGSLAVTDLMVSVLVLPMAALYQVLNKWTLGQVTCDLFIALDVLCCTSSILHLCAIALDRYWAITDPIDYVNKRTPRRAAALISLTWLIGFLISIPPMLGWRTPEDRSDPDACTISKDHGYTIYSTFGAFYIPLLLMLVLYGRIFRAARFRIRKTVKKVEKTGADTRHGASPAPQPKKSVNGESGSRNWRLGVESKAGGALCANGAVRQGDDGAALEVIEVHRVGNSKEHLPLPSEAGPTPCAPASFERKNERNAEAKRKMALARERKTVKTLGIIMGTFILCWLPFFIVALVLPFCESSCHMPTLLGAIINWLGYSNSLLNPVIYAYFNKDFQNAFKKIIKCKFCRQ

[11] = target: 5-hydroxytryptamine receptor 2A (Homo sapiens) (UniProt P28223); experiment: Displacement of [3H]ketanserin from recombinant human 5HT2A receptor expressed in HEK293 cells at 1 uM after 60 mins by scintillation counting analysis relative to control; type: cell-based
[12] = target: 5-hydroxytryptamine receptor 2B (Homo sapiens) (UniProt P41595); experiment: Displacement of [3H]mesulergine from recombinant human 5HT2B receptor expressed in CHO cells at 1 uM after 60 mins by scintillation counting analysis relative to control; type: cell-based
[13] = target: 5-hydroxytryptamine receptor 7 (Homo sapiens) (UniProt P34969); experiment: Inhibition of recombinant human 5HT7 receptor expressed in CHO cells at 1 uM by radioligand displacement assay relative to control; type: cell-based
5-hydroxytryptamine receptor 7 (Homo sapiens), sequence (P34969 whole entry): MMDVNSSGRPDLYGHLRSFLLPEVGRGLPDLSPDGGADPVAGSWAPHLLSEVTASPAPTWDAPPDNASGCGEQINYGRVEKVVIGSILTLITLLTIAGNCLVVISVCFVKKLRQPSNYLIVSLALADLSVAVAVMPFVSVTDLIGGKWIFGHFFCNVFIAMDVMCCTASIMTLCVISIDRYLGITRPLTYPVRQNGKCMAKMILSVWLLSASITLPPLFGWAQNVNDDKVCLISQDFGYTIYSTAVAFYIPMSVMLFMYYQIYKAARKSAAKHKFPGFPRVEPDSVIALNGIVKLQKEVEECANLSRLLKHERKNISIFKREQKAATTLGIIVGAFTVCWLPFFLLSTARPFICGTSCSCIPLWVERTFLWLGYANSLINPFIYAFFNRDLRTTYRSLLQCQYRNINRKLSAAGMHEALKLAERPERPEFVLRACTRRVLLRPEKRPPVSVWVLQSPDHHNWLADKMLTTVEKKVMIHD

[14] = target: Histamine H2 receptor (Homo sapiens) (UniProt P25021); experiment: Displacement of [125I]APT from recombinant human histamine H2 receptor expressed in CHO cells at 1 uM after 120 mins by scintillation counting analysis relative to control; type: cell-based
Histamine H2 receptor (Homo sapiens), sequence (P25021 whole entry): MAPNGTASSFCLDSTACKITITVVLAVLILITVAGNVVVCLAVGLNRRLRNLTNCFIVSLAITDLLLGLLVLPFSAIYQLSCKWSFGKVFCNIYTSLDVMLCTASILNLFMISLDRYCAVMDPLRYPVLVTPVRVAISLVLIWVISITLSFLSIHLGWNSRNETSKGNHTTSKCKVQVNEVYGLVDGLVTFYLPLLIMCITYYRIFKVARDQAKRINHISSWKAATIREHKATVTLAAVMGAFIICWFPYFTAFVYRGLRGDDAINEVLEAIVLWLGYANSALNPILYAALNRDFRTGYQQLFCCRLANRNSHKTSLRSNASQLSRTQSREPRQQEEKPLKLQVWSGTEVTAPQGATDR

[15] = target: Sodium-dependent noradrenaline transporter (Homo sapiens) (UniProt P23975); experiment: Displacement of [3H]nisoxetine from recombinant human norepinephrine transporter expressed in CHO cells at 1 uM after 120 mins by scintillation counting analysis relative to control; type: cell-based
[16] = target: Sodium-dependent dopamine transporter (Homo sapiens) (UniProt Q01959); experiment: Displacement of [3H]BTCP from recombinant human dopamine transporter expressed in CHO cells at 1 uM after 120 mins by scintillation counting analysis relative to control; type: cell-based
[17] = Fraction unbound in rat plasma at 5 uM after 4 hrs by equilibrium dialysis method; type: ADME, cell-free
Rattus norvegicus [18] = experiment: Unbound AUC in Sprague-Dawley rat at 1 mg/kg, iv by LC-MS/MS analysis; type: ADME, organism-based; design: dose 1 mg/kg, route intravenous; conditions: in vivo
Rattus norvegicus [19] = experiment: Unbound AUC in Sprague-Dawley rat at 3 mg/kg, po by LC-MS/MS analysis; type: ADME, organism-based; design: dose 3 mg/kg, route oral; conditions: in vivo
Rattus norvegicus [20] = experiment: Unbound Cmax in Sprague-Dawley rat at 3 mg/kg, po by LC-MS/MS analysis; type: ADME, organism-based; design: dose 3 mg/kg, route oral; conditions: in vivo
[21] = Fraction unbound in rat brain at 5 uM after 4 hrs by equilibrium dialysis method; type: ADME, tissue-based
[22] = target: Kappa-type opioid receptor (Rattus norvegicus) (UniProt P34975); experiment: Inhibition of rat recombinant KOR expressed in CHO cells at 1 uM by radioligand displacement assay relative to control; type: cell-based
Kappa-type opioid receptor (Rattus norvegicus), sequence (P34975 whole entry): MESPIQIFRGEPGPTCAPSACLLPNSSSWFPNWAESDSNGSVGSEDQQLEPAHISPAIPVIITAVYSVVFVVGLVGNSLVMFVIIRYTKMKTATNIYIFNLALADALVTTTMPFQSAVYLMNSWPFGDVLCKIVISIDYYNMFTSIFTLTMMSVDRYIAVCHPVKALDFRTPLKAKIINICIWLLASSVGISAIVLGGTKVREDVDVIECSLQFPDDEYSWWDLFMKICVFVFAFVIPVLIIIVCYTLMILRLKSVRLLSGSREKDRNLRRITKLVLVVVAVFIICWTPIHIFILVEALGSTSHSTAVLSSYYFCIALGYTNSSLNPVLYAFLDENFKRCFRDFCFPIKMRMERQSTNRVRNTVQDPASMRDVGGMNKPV

in vivo [23] = conditions: Sprague-Dawley, rat, iv, 1 mg/kg
in vivo [24] = conditions: Sprague-Dawley, rat, po, 3 mg/kg
[25] = target: Adenosine receptor A1 (Homo sapiens) (UniProt P30542); experiment: Displacement of [3H]DPCPX from recombinant human adenosine A1 receptor expressed in CHO cells after 60 mins by scintillation counting analysis relative to control; type: cell-based
[26] = target: Adenosine receptor A3 (Homo sapiens) (UniProt P0DMS8); experiment: Inhibition of recombinant human adenosine A3 receptor expressed in HEK293 cells by radioligand displacement assay relative to control; type: cell-based; conditions: concentration not given here
[27] = target: Translocator protein (Homo sapiens) (UniProt P30536); experiment: Inhibition of benzodiazepine receptor (unknown origin) by radioligand displacement assay relative to control; conditions: concentration not given here
Translocator protein (Homo sapiens), sequence (P30536 whole entry): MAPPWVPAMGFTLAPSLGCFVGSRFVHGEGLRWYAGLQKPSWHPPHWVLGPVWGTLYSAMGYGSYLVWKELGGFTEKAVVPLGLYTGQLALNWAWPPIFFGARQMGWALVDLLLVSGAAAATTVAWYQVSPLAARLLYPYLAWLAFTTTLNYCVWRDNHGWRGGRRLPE

[28] = target: Gastrin/cholecystokinin type B receptor (Homo sapiens) (UniProt P32239); experiment: Inhibition of recombinant human CCK2 receptor expressed in CHO cells by radioligand displacement assay relative to control; type: cell-based; conditions: concentration not given here
Gastrin/cholecystokinin type B receptor (Homo sapiens), sequence (P32239 whole entry): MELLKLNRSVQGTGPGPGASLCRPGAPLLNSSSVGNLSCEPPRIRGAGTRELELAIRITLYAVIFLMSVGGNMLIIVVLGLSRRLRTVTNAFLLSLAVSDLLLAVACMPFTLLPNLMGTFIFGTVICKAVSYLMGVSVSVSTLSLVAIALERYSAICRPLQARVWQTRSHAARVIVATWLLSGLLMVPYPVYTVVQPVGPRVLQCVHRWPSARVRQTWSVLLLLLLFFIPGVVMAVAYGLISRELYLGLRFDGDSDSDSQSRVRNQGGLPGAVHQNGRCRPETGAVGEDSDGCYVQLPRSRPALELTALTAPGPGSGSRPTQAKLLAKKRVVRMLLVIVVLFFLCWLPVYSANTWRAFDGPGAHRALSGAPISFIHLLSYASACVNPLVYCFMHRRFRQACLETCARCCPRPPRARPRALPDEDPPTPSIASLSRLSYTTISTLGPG

[29] = target: Prostaglandin E2 receptor EP4 subtype (Homo sapiens) (UniProt P35408); experiment: Inhibition of recombinant human prostanoid receptor EP4 expressed in HEK293 cells by radioligand displacement assay relative to control; type: cell-based; conditions: concentration not given here
Prostaglandin E2 receptor EP4 subtype (Homo sapiens), sequence (P35408 whole entry): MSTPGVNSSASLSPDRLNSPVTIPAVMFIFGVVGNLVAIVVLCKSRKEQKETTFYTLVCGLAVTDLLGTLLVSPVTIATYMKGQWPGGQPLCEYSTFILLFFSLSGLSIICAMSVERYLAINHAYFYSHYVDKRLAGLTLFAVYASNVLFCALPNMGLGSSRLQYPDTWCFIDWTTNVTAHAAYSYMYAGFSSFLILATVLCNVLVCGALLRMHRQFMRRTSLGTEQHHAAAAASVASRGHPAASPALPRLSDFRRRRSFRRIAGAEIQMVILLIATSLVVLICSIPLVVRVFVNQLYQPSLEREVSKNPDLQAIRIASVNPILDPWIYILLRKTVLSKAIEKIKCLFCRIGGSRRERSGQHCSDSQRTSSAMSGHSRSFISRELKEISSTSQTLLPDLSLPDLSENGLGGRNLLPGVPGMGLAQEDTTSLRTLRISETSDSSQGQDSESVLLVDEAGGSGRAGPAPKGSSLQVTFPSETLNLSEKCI

[30] = Apparent permeability across apical to basolateral side in human Caco2 cells in presence of 0.1% bovine serum albumin; conditions: Caco-2
[31] = Apparent permeability across basolateral to apical side in human Caco2 cells in presence of 0.1% bovine serum albumin; conditions: Caco-2
[32] = Total systemic clearance in Sprague-Dawley rat at 1 mg/kg, iv by LC-MS/MS analysis; type: ADME, organism-based; design: dose 1 mg/kg, route intravenous; conditions: in vivo
in vivo [33] = conditions: Sprague-Dawley, rat, iv, 1 mg/kg; remark: listed apart in the source
Description: Volume of distribution at steady state in Sprague-Dawley rat at 1 mg/kg, iv by LC-MS/MS analysis

in vivo [34] = conditions: Sprague-Dawley, rat, po, 3 mg/kg; remark: listed apart in the source
[35] = Solubility of the compound in PBS buffer at pH 7.4 by shake-flask method; type: physicochemical
Cytochrome P450 3A4 = Cytochrome P450 3A4 (Homo sapiens, UniProt P08684); experiment: Inhibition of CYP3A4 (unknown origin) by luciferase reporter assay in presence of NADPH regeneration system; type: ADME
Cytochrome P450 2D6 = Cytochrome P450 2D6 (Homo sapiens, UniProt P10635); experiment: Inhibition of CYP2D6 (unknown origin) by luciferase reporter assay in presence of NADPH regeneration system; type: ADME
Cytochrome P450 2D6, sequence (P10635 whole entry): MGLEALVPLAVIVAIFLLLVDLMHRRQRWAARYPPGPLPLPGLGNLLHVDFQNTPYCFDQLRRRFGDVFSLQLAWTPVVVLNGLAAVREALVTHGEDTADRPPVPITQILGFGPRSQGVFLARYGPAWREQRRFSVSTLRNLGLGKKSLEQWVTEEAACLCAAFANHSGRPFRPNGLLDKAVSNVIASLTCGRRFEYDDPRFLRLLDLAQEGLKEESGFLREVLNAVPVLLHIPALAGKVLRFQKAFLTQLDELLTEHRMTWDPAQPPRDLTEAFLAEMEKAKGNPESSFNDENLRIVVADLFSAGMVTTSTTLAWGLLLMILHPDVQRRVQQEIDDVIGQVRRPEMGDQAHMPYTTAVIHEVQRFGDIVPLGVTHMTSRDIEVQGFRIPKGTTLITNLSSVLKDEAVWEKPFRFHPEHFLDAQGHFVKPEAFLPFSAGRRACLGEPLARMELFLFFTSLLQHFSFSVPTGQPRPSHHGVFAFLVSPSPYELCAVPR

Cytochrome P450 2C9 = Cytochrome P450 2C9 (Homo sapiens, UniProt P11712); experiment: Inhibition of CYP2C9 (unknown origin) by luciferase reporter assay in presence of NADPH regeneration system; type: ADME
Cytochrome P450 2C19 = Cytochrome P450 2C19 (Homo sapiens, UniProt P33261); experiment: Inhibition of CYP2C19 (unknown origin) by luciferase reporter assay in presence of NADPH regeneration system
Cytochrome P450 2C19, sequence (P33261 whole entry): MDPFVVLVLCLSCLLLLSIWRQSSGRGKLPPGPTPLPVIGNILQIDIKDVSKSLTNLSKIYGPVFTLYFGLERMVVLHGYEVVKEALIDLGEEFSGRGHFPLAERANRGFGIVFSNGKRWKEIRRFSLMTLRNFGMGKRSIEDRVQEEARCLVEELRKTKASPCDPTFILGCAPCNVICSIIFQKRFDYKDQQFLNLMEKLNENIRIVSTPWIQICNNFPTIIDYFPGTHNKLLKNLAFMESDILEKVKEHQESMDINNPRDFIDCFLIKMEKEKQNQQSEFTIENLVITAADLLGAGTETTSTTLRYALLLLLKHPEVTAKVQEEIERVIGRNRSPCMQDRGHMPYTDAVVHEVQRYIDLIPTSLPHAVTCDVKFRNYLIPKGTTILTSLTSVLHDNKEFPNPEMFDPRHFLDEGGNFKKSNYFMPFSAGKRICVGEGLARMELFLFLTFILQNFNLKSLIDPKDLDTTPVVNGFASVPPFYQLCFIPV

Cytochrome P450 1A2 = target: T1, Cytochrome P450 1A2 (Homo sapiens, UniProt P05177); experiment: Inhibition of CYP1A2 (unknown origin) by luciferase reporter assay in presence of NADPH regeneration system; type: ADME
T1 sequence (P05177 whole entry): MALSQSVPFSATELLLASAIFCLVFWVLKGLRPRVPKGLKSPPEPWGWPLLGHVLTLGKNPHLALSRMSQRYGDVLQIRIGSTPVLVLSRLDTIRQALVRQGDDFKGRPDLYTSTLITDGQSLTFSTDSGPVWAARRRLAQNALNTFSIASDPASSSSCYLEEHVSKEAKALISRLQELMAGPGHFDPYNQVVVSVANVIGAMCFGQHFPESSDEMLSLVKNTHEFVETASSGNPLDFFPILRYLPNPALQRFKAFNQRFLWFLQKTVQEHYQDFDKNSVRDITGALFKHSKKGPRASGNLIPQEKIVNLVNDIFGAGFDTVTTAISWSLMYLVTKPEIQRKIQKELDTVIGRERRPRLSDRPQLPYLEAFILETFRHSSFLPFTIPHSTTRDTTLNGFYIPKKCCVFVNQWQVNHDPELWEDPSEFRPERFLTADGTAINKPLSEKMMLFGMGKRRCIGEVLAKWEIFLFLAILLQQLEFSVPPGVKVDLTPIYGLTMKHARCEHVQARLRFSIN

[36] = Half life in rat liver microsomes; type: ADME
[37] = Half life in human liver microsomes; type: ADME
Neuromedin-K receptor [38] = target: T2, Neuromedin-K receptor (Homo sapiens, UniProt P29371)
T2 sequence (P29371 whole entry): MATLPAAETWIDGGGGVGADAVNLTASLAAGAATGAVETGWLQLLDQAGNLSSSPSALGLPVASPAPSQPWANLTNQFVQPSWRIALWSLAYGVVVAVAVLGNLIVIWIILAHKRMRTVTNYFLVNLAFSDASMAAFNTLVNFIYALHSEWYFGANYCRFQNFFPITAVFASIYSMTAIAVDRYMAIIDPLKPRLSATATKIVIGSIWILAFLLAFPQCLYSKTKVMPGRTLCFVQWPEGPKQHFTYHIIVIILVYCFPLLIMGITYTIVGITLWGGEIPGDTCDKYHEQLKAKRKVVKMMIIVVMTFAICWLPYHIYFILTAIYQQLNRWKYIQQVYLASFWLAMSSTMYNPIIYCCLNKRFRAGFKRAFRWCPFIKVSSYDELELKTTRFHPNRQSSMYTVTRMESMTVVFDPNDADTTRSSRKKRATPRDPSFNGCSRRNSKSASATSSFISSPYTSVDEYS

Neuromedin-K receptor [39] = target: T2, Neuromedin-K receptor; experiment: biochemical
Description: Displacement of [3H]-SB222200 from recombinant human NK3R expressed in CHO cell membranes after 90 mins by scintillation counting analysis

[40] = Ratio of apparent permeability across apical to basolateral over basolateral to apical side in human Caco2 cells in presence of 0.1% bovine serum albumin; type: ADME, cell-based; conditions: Caco-2

Kappa-type opioid receptor (Homo sapiens), sequence (P41145 whole entry): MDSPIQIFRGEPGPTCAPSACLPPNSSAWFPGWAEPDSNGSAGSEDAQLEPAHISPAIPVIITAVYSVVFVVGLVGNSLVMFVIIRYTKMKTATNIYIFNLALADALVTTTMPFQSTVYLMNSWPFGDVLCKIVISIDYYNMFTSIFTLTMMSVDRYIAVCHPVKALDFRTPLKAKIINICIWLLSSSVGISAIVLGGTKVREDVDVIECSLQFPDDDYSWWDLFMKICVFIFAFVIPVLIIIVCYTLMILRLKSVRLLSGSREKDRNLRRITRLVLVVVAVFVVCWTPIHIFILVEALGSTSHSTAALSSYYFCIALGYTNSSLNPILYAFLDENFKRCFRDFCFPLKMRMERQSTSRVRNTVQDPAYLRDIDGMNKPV

## CC(=O)N(C)C1(c2ccccc2)CCN(CCC[C@]2(c3ccc(Cl)c(Cl)c3)CCCN(C(=O)c3ccccc3)C2)CC1 [OSANETANT]
[1]
  logD: 3.4
[2]
  inhibition: 100%
[3]
  inhibition: 75%
[4]
  inhibition: > 50%
[5]
  inhibition: > 50%
[6]
  inhibition: > 50%
[7]
  inhibition: > 50%
[8]
  inhibition: > 50%
[9]
  inhibition: > 50%
[10]
  inhibition: > 50%
[11]
  inhibition: > 50%
[12]
  inhibition: > 50%
[13]
  inhibition: > 50%
[14]
  inhibition: > 50%
[15]
  inhibition: > 50%
[16]
  inhibition: > 50%
[17]
  fraction unbound at 4 h, 5 µM: 0.006
Rattus norvegicus [18]
  fAUC: 0.2 µM·min
Rattus norvegicus [19]
  fAUC: 0.1 µM·min
Rattus norvegicus [20]
  fCmax: 0.42 nM
[21]
  fraction unbound at 4 h, 5 µM: 0.001
[22]
  inhibition: > 50%
In vivo [23]
  half-life: 121 min
In vivo [24]
  Tmax: 45 min

## CC[C@H](NC(=O)c1c(O)c(-c2ccccc2)nc2ccccc12)c1ccccc1 [TALNETANT]
[2]
  inhibition: 12%
[25]
  inhibition: > 60%
[26]
  inhibition: > 60%
[27]
  inhibition: > 60%
[28]
  inhibition: > 60%
[29]
  inhibition: > 60%
[17]
  fraction unbound at 4 h, 5 µM: 0.0003
[30]
  Papp A→B: 87.2 ×10⁻⁶ cm/s
[31]
  Papp B→A: 98.5 ×10⁻⁶ cm/s
[32]
  clearance: 2 mL/min/kg
Rattus norvegicus [18]
  fAUC: 0.5 µM·min
Rattus norvegicus [19]
  fAUC: 0.7 µM·min
Rattus norvegicus [20]
  fCmax: 2.65 nM
[21]
  fraction unbound at 4 h, 5 µM: 0.01
In vivo [33]
  Vd: 1.5 L/kg
In vivo [23]
  half-life: 448 min
In vivo [24]
  Tmax: 60 min
In vivo [34]
  bioavailability: 47%

## O=C(c1ccc(F)cc1)N1CCn2c(nnc2-c2ccccn2)C1
[1]
  logD: 1.1
[35]
  solubility thermodynamic: ≥ 200 µM
Cytochrome P450 3A4
  IC50: > 100 µM
Cytochrome P450 2D6
  IC50: 15 µM
Cytochrome P450 2C9
  IC50: 66 µM
Cytochrome P450 2C19
  IC50: 14 µM
Cytochrome P450 1A2
  IC50: 27 µM
[36]
  half-life: > 240 min
[37]
  half-life: > 240 min
Neuromedin-K receptor [38]
  IC50: 4 µM
In vivo [34]
  bioavailability: 108%
Neuromedin-K receptor [39]
  Ki: 4.5 µM

## CC(C)NCC(O)COc1cccc2ccccc12 (configuration not stated) [PROPRANOLOL]
[30]
  Papp A→B: ≥ 45 ×10⁻⁶ cm/s
[31]
  Papp B→A: ≥ 45 ×10⁻⁶ cm/s
[40]
  Ratio: 1
